Experimental data: publication PMC11766601, “A Comparative Study of the In Vitro Intestinal Permeability of Pinnatoxins and Portimine” (Marine Drugs, 2025)
Like-named read-outs stand apart in the source and are kept apart here.

Experiments:
[1] = system: Caco-2 cells; experiment: Trans-epithelial electrical resistance (TEER) of differentiated Caco-2 monolayers; assay type: cell-based, human; details: 24 h, all of the concentrations (8, 16, 32 ng/mL)
Experimental: (§1) All experiments were performed with human intestinal Caco-2 cells (ATCC-HTB37), acquired from the American Type Culture Collection (ATCC; Manassas, VA, USA). Caco-2 cells originate from a colorectal adenocarcinoma, but upon reaching confluence, they differentiate and express the characteristics of enterocytes. The cells were cultivated in minimum essential medium containing 5.5 mM D-glucose, Earle’s salts, and 2 mM L-alanyl-glutamine (MEM GlutaMAX™, Gibco, Bromont, QC, Canada) supplemented with 10% fetal bovine serum (FBS, Gibco), 1% non-essential amino acids, 50 U/mL penicillin, and 50 μg/mL streptomycin (Gibco) under humidified conditions (37 °C, 5% CO2, 95% humidity). The cells were grown for 3–4 days up to 80% confluence before trypsinization and sub-culture. For the experiments, the cells were seeded in TRANSWELL® plates (12 wells, 0.4 µm pore size; Costar®, Corning Incorporated, Corning, NY, USA) at a density of 90,000 cells/cm^2. Prior to toxin treatment, highly differentiated Caco-2 cells were obtained after 24–26 days of culture, with medium renewal every 2–3 days. Passage numbers between 30 and 40 were used for experiments.
(§2) PnTX-A, PnTX-G, PnTX-E, PnTX-H, and portimine stock solutions were prepared in methanol, while PnTX-F was provided in acetonitrile/acetic acid (50%/0.1%). For each toxin, the cells were incubated at 8, 16, and 32 ng/mL (diluted in HBSS) for 2 h, 6 h, and 24 h, with a final volume of 1.5% solvent. The controls were incubated with the cell culture medium containing the respective solvent of the toxin at 1.5%. Each experiment included three biological replicates. Two to three independent experiments were conducted.
Epithelial integrity was examined by measuring the TEER between the apical and basolateral compartments. After rinsing with a HBSS solution (HBSS, HEPES 5 mM, pH 7.4), the Caco-2 monolayers were equilibrated for 30 min at 37 °C with 300 and 1000 µL HBSS in the apical (A) and basolateral (B) chambers, respectively. Then, the content of the apical compartment was replaced with 500 µL HBSS-containing toxins. TEER was quantified with a Millipore Millicell Electrical Resistance System (ERS Millipore, EMD Millipore Corporation, Burlington, MA, USA). The mean value of two measurements per well before and after the treatment was calculated and multiplied by the surface of the insert to obtain Ω × cm^2. After blank subtraction, the results were presented as a percentage of the solvent control.

[2] = system: Caco-2 cell monolayers; experiment: Lucifer Yellow paracellular permeability (barrier integrity); assay type: cell-based, human; details: 24 h, all concentrations (8, 16, 32 ng/mL)
Experimental: as §1, §2
For the assay, both compartments of the insert system were washed with Hank’s balanced salt solution (HBSS). Then, 0.5 mL of 0.1 mg/mL Lucifer Yellow in HBSS buffer and 1 mL of pure HBSS buffer were added to the apical and basolateral compartments, respectively. After a 2 h incubation at 37 °C, the media of the basolateral compartments were collected and the fluorescence of each compartment was measured in triplicate (excitation: 405 nm, emission: 520 nm) with a FLUOstar Optima microplate reader (BMG Labtech, Ortenberg, Germany). After subtraction of the blank (HBSS), the permeability of the […] was calculated against the value obtained for pure LY and reported as % permeability.

[3] = Toxin crossing and apparent permeability across Caco-2 cell monolayers (A to B), LC-MS/MS; assay type: in vitro ADME, human; details: human, Caco-2, A to B
Experimental: as §1, §2
(§3) The apical and basolateral compartments were collected after 2, 6, and 24 h treatment time. Parts of the solutions that were used to load the apical compartments were also stored (T0) to take into account the real concentration and not the estimated concentration. All the samples were stored at −20 °C until LC/MS analysis.
(§4) The LC-MS/MS analysis of toxins was implemented for the quantitative analysis of toxins. The LC system was an Agilent 1200 (Agilent Technologies, Santa Clara, CA, USA). The chromatographic separation was performed using a column Hypersil GOLD® C18 50 mm × 2.1 mm, 1.9 μm (Thermo Scientific, Waltham, MA, USA). Eluent A consisted of water, and eluent B of acetonitrile/water at a ratio of 95:5 (v/v), with both eluents containing 50 mM formic acid and 2 mM ammonium formate. The LC flow rate was 0.4 mL/min, and the gradient was programmed as follows: 10% B held for 0.5 min, 10–90% B in 5 min, 90% B held for 1 min, 90–10% B in 0.5 min, and 10% B held for 3.0 min, for a total run time of 10 min. The injection volume was 5 μL, while the column temperature was maintained at 40 °C. The column effluent was transferred via a divert valve (Valco Instruments Co., Inc., Houston, TX, USA), either to the mass spectrometer (between 1.7 and 5.5 min) or to waste.
(§5) The detection system was constructed with an API 4000 triple quadrupole mass spectrometer (Sciex, Framingham, MA, USA) equipped with an ElectroSpray Ionization (ESI) source (Turbo V). The mass spectrometer was operated in positive ESI mode. The source temperature was set at 600 °C, and the spray voltage was 5500 V. Air was used as a nebulizer gas and an auxiliary gas, with a gas pressure of 40 and 60 psi, respectively. Meanwhile, the curtain gas and collision gas were nitrogen, with a gas pressure of 15 and 8 psi, respectively. The mass spectrometer was operated in multiple reaction monitoring mode (MRM). One transition was used for quantification (Q) and another as a qualifier transition (q). A mass resolution of 0.7 Da full width at half maximum (FWHD) was set on the first (Q1) and the third (Q3) quadrupoles. Instrument control and data were handled with Analyst software version 1.5.1 (Sciex, Framingham, MA, USA).
(§6) The portimine and PnTX retention times varied between 2.7 and 4.4 min (Figure S1). […]

[4] = system: Caco-2 cell monolayers; experiment: as above; assay type: in vitro ADME, human; details: for % theoretical amount of toxin crossing the Caco-2 cell monolayers: relative to theoretical loaded concentration; for Percentage of toxin crossing the Caco-2 cell monolayers: A to B, relative to quantified T0
Experimental: as §1, §2, §3, §4, §5, §6

[5] = system: cancer cells; details: cited from earlier work
[6] = system: mice; details: cited from earlier work

C=CC1=CC2C3O[C@]4(CCC(O4)[C@@H](C)C[C@@H](O)C3=O)C[C@H](O)C3=NCC[C@@]32CC1 (stereo partly shown) [Portimine, portimine]
TEER [1]: 10.02 ± 0.96 % of control value
effect on LY permeability [2]: significant increase
Papp at 2 h, 8 ng/mL ([3]; 2 h, loaded 8 ng/mL): 5.72 ± 0.91 ×10⁻⁶ cm/s
Papp at 2 h, 16 ng/mL ([3]; 2 h, loaded 16 ng/mL): 9.6 ± 0.55 ×10⁻⁶ cm/s
Papp at 2 h, 32 ng/mL ([3]; 2 h, loaded 32 ng/mL): 14.4 ± 5.27 ×10⁻⁶ cm/s
Papp at 6 h, 8 ng/mL ([3]; 6 h, loaded 8 ng/mL): 15 ± 2.29 ×10⁻⁶ cm/s
Papp at 6 h, 16 ng/mL ([3]; 6 h, loaded 16 ng/mL): 19 ± 349 ×10⁻⁶ cm/s
Papp at 6 h, 32 ng/mL ([3]; 6 h, loaded 32 ng/mL): 24.5 ± 3.01 ×10⁻⁶ cm/s
% theoretical amount of toxin crossing the Caco-2 cell monolayers ([4]; 2 h, 8 ng/mL): 8.50 ± 1.25%
% theoretical amount of toxin crossing the Caco-2 cell monolayers ([4]; 2 h, 16 ng/mL): 13.33 ± 1.69%
% theoretical amount of toxin crossing the Caco-2 cell monolayers ([4]; 2 h, 32 ng/mL): 20.73 ± 7.28%
Percentage of toxin crossing the Caco-2 cell monolayers ([4]; 2 h, loaded 8 ng/mL): 9.23 ± 1.46%
Percentage of toxin crossing the Caco-2 cell monolayers ([4]; 2 h, loaded 16 ng/mL): 15.48 ± 0.89%
Percentage of toxin crossing the Caco-2 cell monolayers ([4]; 2 h, loaded 32 ng/mL): 23.25 ± 6.88%
% theoretical amount of toxin crossing the Caco-2 cell monolayers ([4]; 6 h, 8 ng/mL): 22.33 ± 3.36%
% theoretical amount of toxin crossing the Caco-2 cell monolayers ([4]; 6 h, 16 ng/mL): 26.08 ± 3.00%
% theoretical amount of toxin crossing the Caco-2 cell monolayers ([4]; 6 h, 32 ng/mL): 34.60 ± 4.41%
Percentage of toxin crossing the Caco-2 cell monolayers ([4]; 6 h, loaded 8 ng/mL): 24.23 ± 3.69%
Percentage of toxin crossing the Caco-2 cell monolayers ([4]; 6 h, loaded 16 ng/mL): 30.63 ± 5.62%
Percentage of toxin crossing the Caco-2 cell monolayers ([4]; 6 h, loaded 32 ng/mL): 39.45 ± 4.86%
mechanism of transport from the apical to the basolateral compartment ([4]; inferred from concentration-dependent Papp): passive diffusion
permeability / oral bioavailability class from Caco-2 Papp ([4]; threshold Papp > 1.5 × 10^−6 cm·s^−1 = highly penetrative): high oral bioavailability
apoptosis induction ([5]; observed by several methods): induces apoptosis
acute intraperitoneal toxicity [6]: not very toxic

C=CC1=CC2C3O[C@]4(CCC(O4)[C@@H](C)C[C@@H](O)C3=O)CC(=O)C3=NCC[C@@]32CC1 (stereo partly shown) [Portimine-B, portimine-B, reference compound]
apoptosis induction ([5]; cancer cells): induces apoptosis in cancer cells but with less activity
